Here are results for twelve molecules from patent US6822102B2, “Dihydrobenzopyrans, dihydrobenzothiopyrans, and tetrahydroquinolines for the treatment of COX-2 mediated disorders” (Pharmacia Corporation, priority 2000, dated 2004).

Data set [1] concerns the target COX-1 (UniProt P23219). Nature of the data set: Fast assay for COX-1 activity (PGE2 ELISA, recombinant enzyme). The data set is classed as biochemical, human or murine. The settings on record: column marked *; footnote not given. How it is done: (§1) a. Preparation of recombinant COX baculoviruses
(§2) Recombinant COX-1 and COX-2 were prepared as described by Gierse et al, [J. Biochem., 305, 479-84 (1995)]. A 2.0 kb fragment containing the coding region of either human or murine COX-1 or human or murine COX-2 was cloned into a BamHI site of the baculovirus transfer vector pVL1393 (Invitrogen) to generate the baculovirus transfer vectors for COX-1 and COX-2 in a manner similar to the method of D. R. O'Reilly et al (Baculovirus Expression Vectors: A Laboratory Manual (1992)). Recombinant baculoviruses were isolated by transfecting 4 μg of baculovirus transfer vector DNA into SF9 insect cells (2×10^8) along with 200 ng of linearized baculovirus plasmid DNA by the calcium phosphate method. See M. D. Summers and G. E. Smith, A Manual of Methods for Baculovirus Vectors and Insect Cell Culture Procedures, Texas Agric. Exp. Station Bull. 1555 (1987). Recombinant viruses were purified by three rounds of plaque purification and high titer (10^7-10^8 pfu/mL) stocks of virus were prepared. For large scale production, SF9 insect cells were infected in 10 liter fermentors (0.5×10^6/mL) with the recombinant baculovirus stock such that the multiplicity of infection was 0.1. After 72 hours the cells were centrifuged and the cell pellet homogenized in Tris/Sucrose (50 mM: 25%, pH 8.0) containing 1% 3-[(3-cholamidopropyl) dimethylammino]-1-propanesulfonate (CHAPS). The homogenate was centrifuged at 10,000×G for 30 minutes, and the resultant supernatant was stored at −80° C. before being assayed for COX activity.
(§3) c. Fast assay for COX-1 and COX-2 activity
(§4) COX activity was assayed as PGE2 formed/μg protein/time using an ELISA to detect the prostaglandin released. CHAPS-solubilized insect cell membranes containing the appropriate COX enzyme were incubated in a potassium phosphate buffer (0.05 M Potassium phosphate, pH 7.5, 2 μM phenol, 1 μM heme, 300 μM epinephrine) with the addition of 20 μl of 100 μM arachidonic acid (10 μM). Compounds were pre-incubated with the enzyme for 10 minutes at 25° C. prior to the addition of arachidonic acid. Any reaction between the arachidonic acid and the enzyme was stopped after two minutes at 37° C./room temperature by transferring 40 μl of reaction mix into 160 μl ELISA buffer and 25 μM indomethacin. The PGE2 formed was measured by standard ELISA technology (Cayman Chemical).

For data set [2], the target named is T1, COX-2 (UniProt P35354).
T1 sequence (P35354 1-604): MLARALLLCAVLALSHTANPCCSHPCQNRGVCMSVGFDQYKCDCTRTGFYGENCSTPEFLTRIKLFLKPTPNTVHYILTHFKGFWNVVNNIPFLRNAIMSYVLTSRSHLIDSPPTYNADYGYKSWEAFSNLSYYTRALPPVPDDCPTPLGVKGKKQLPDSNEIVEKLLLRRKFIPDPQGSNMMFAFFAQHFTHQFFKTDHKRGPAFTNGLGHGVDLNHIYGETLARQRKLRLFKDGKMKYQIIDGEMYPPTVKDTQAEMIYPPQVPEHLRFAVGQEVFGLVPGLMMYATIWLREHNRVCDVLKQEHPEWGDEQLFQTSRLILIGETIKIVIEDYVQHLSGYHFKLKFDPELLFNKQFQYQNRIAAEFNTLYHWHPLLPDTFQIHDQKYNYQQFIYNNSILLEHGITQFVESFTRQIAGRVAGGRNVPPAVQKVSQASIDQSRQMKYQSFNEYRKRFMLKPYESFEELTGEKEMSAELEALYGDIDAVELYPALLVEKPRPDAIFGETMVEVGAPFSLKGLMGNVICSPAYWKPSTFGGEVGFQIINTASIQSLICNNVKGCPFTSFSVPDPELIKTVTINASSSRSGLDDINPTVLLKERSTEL
Nature of the data set: Assay for COX-2 activity (PGE2 ELISA, recombinant enzyme). It counts as biochemical, human or murine. The settings on record: without asterisk. The protocol:
(§5) The COX-2 inhibition activity of the compounds of this invention illustrated in the Examples was determined by the following methods.
as §1, §2
(§6) b. Assay for COX-1 and COX-2 activity
(§7) COX activity was assayed as PGE2 formed/μg protein/time using an ELISA to detect the prostaglandin released. CHAPS-solubilized insect cell membranes containing the appropriate COX enzyme were incubated in a potassium phosphate buffer (50 mM, pH 8.0) containing epinephrine, phenol, and heme with the addition of arachidonic acid (10 μM). Compounds were pre-incubated with the enzyme for 10-20 minutes prior to the addition of arachidonic acid. Any reaction between the arachidonic acid and the enzyme was stopped after ten minutes at 37° C./room temperature by transferring 40 μl of reaction mix into 160 μl ELISA buffer and 25 μM indomethacin. The PGE2 formed was measured by standard ELISA technology (Cayman Chemical).

For data set [3], the target named is T1, COX-2. Nature of the data set: Fast assay for COX-2 activity (PGE2 ELISA, recombinant enzyme). It counts as biochemical, human or murine. Conditions: column marked *; footnote not given. How it is done: as §5, §1, §2, §3, §4
The target in data set [4] is COX-1 (UniProt P23219). Nature of the data set: Assay for COX-1 activity (PGE2 ELISA, recombinant enzyme). The settings on record: without asterisk. It counts as biochemical, human or murine. How it is done:
as §1, §2, §6, §7

In a further data set the test system is carrageenan foot edema. Nature of the data set: Rat carrageenan foot pad edema test. It counts as in vivo. Conditions: oral, male Sprague-Dawley rats, 3 h after carrageenan. The protocol: Rat Carrageenan Foot Pad Edema Test The carrageenan foot edema test was performed with materials, reagents and procedures essentially as described by Winter, et al., (Proc. Soc. Exp. Biol. Med., 111, 544 (1962)). Male Sprague-Dawley rats were selected in each group so that the average body weight was as close as possible. Rats were fasted with free access to water for over sixteen hours prior to the test. The rats were dosed orally (1 mL) with compounds suspended in vehicle containing 0.5% methylcellulose and 0.025% surfactant, or with vehicle alone. One hour later a subplantar injection of 0.1 mL of 1% solution of carrageenan/sterile 0.9% saline was administered and the volume of the injected foot was measured with a displacement plethysmometer connected to a pressure transducer with a digital indicator. Three hours after the injection of the carrageenan, the volume of the foot was again measured. The average foot swelling in a group of drug-treated animals was compared with that of a group of placebo-treated animals and the percentage inhibition of edema was determined (Otterness and Bliven, Laboratory Models for Testing NSAIDs, in Non-steroidal Anti-Inflammatory Drugs, (J. Lombardino, ed. 1985)).

A short description of another data set: Analgesia (Table I). The data set is classed as in vivo.

On to `O=C(O)[C@@H]1Cc2cc(Cl)ccc2N[C@@H]1C(F)(F)F` [Example 6, (2S,3R)-6-Chloro-1,2,3,4-tetrahydro-2-(trifluoromethyl)-3-quinolinecarboxylic acid], for which the melting point fell in the range of 154.4 to 154.5 °C. Besides, the concentration for half-maximal inhibition (IC50) on COX-1 [1] was greater than 100000 nM. In addition, the half-maximal inhibitory concentration (IC50) on COX-2 [2] was 25000 nM. The IC50 at COX-2 [3] is 2600 nM. Further, the concentration for half-maximal inhibition (IC50) at COX-1 [4] was greater than 100000 nM.

`N#Cc1ccc2c(c1)C[C@@H](C(=O)O)[C@@H](C(F)(F)F)O2` (racemic) [Example 10, rel-(2R,3S)-6-cyano-3,4-dihydro-2-(trifluoromethyl)-2H-1-benzopyran-3-carboxylic acid] had a melting point of 169 to 170.4 °C. Further, the IC50 at COX-1 [1] was greater than 100000 nM. Also, the IC50 on COX-2 [2] turned out to be 18000 nM. The IC50 on COX-2 [3] turned out to be 4800 nM. For the same molecule, the IC50 on COX-1 [4] was greater than 100000 nM.

In the case of `CC(C)(C)c1cc2c(cc1Cl)C[C@@H](C(=O)O)[C@@H](C(F)(F)F)O2` [Example 4, (2S,3R)-6-chloro-3,4-dihydro-7-(1,1-dimethylethyl)-2-(trifluoromethyl)-2H-1-benzopyran-3-carboxylic acid], the melting point is 115.8 to 120.9 °C. In addition, at COX-1 [1], the IC50 worked out at 1300 nM. The IC50 at COX-2 [2] is greater than 100000 nM. The IC50 on COX-2 [3] was determined as 1600 nM. At COX-1 [4], the IC50 amounted to 12000 nM.

In turn, `O=C(O)[C@@H]1Cc2cc(Cl)cc(Cl)c2S[C@@H]1C(F)(F)F` (racemic) [Example 1, rel-(2R, 3S)-6,8-dichloro-3,4-dihydro-2-(trifluoromethyl)-2H-1-benzothiopyran-3-carbolic acid] returned a melting point of 165 to 170.2 °C.

The molecule `O=C(O)[C@@H]1Cc2cc(OC(F)(F)F)ccc2O[C@@H]1C(F)(F)F` (racemic) [Example 11, rel-(2R,3S)-3,4-dihydro-6-trifluoromethoxy-2-(trifluoromethyl)-2H-1-benzopyran-3-carboxylic acid] registered a melting point of 120.1 to 120.8 °C. In addition, the IC50 at COX-1 [1] amounted to 65000 nM. Moreover, the concentration for half-maximal inhibition (IC50) at COX-2 [2] worked out at 400 nM. For the same molecule, the 50% inhibitory concentration (IC50) at COX-2 [3] stood at 600 nM. Besides, on COX-1 [4], the IC50 is greater than 100000 nM.

The molecule `O=C(O)[C@@H]1Cc2c(Cl)ccc(Cl)c2O[C@@H]1C(F)(F)F` (racemic) [Example 8, rel-(2R,3S)-5,8-dichloro-3,4-dihydro-2-(trifluoromethyl)-2H-1-benzopyran-3-carboxylic acid] showed a melting point of 185.7 to 188.9 °C. Also, on COX-1 [1], the half-maximal inhibitory concentration (IC50) worked out at 8700 nM. Further, the IC50 at COX-2 [2] is 2000 nM. At COX-2 [3], the IC50 worked out at 2300 nM. In addition, the half-inhibitory concentration (IC50) at COX-1 [4] is 22000 nM.

Take `O=C(O)[C@@H]1Cc2cc(Cl)cc(Cl)c2S[C@@H]1C(F)(F)F` (relative stereo) [Example 1, rel-(2R, 3S)-6,8-dichloro-3,4-dihydro-2-(trifluoromethyl)-2H-1-benzothiopyran-3-carbolic acid]: the 50% inhibitory concentration (IC50) on COX-1 [1] was 600 nM; at COX-2 [2], 300 nM; on COX-2 [3], 600 nM; on COX-1 [4] it was 600 nM.

As for `O=C(O)[C@@H]1Cc2c(cc(Cl)c(Cl)c2Cl)O[C@@H]1C(F)(F)F` (racemic) [Example 5, rel-(2R,3S)-3,4-dihydro-5,6,7-trichloro-2-(trifluoromethyl)-2H-1-benzopyran-3-carboxylic acid], the melting point was in the range of 207.3 to 208.5 °C. Besides, the IC50 on COX-1 [1] is greater than 100000 nM. Moreover, the concentration for half-maximal inhibition (IC50) on COX-2 [2] worked out at 400 nM. The concentration for half-maximal inhibition (IC50) at COX-2 [3] was 400 nM. Also, the IC50 at COX-1 [4] is greater than 100000 nM.

In turn, `O=C(O)[C@@H]1Cc2cc(Cl)c(Cl)c(Cl)c2O[C@@H]1C(F)(F)F` (racemic) [Example 7, rel-(2R, 3S)-3,4-dihydro-6,7,8-trichloro-2-(trifluoromethyl)-2H-1-benzopyran-3-carboxylic acid] came in with a melting point of 205.2 to 208.1 °C. For the same molecule, at COX-1 [1], the 50% inhibitory concentration (IC50) came out at 54000 nM. For the same molecule, the IC50 at COX-2 [2] amounted to 700 nM. Also, the IC50 at COX-2 [3] came out at 600 nM. In addition, the IC50 on COX-1 [4] is greater than 100000 nM.

Molecule `O=C(O)[C@@H]1Cc2c(ccc(Cl)c2Cl)O[C@@H]1C(F)(F)F` (racemic) [Example 3, rel-(2R, 3S)-5,6-dichloro-3,4-dihydro-2-(trifluoromethyl)-2H-1-benzopyran-3-carboxylic acid] returned a melting point of 173 to 174.4 °C. Moreover, on COX-1 [1], the IC50 turned out to be 5700 nM. Besides, the half-maximal inhibitory concentration (IC50) on COX-2 [2] stood at 200 nM. Moreover, the 50% inhibitory concentration (IC50) on COX-2 [3] was 200 nM. The IC50 at COX-1 [4] is greater than 100000 nM.

In turn, `O=C(O)[C@@H]1Cc2cc(Cl)cc(Cl)c2O[C@@H]1C(F)(F)F` [Example 2, (2S,3R)-6,8-dichloro-3,4-dihydro-2-(trifluoromethyl)-2H-1-benzopyran-3-carboxylic acid] gave a melting point of 100.3 to 101.1 °C. Also, the “RAT PAW EDEMA % Inhibition @ 30 mg/kg body weight” value with carrageenan foot edema was determined as 52%. For the same molecule, at COX-1 [1], the IC50 came out at 1000 nM. In addition, the IC50 on COX-2 [2] was 200 nM. Also, at COX-2 [3], the concentration for half-maximal inhibition (IC50) was 300 nM. In addition, in the data set “Analgesia (Table I)”, the “ANALGESIA % Inhibition @ 30 mg/kg body weight” value is 56%. The 50% inhibitory concentration (IC50) at COX-1 [4] came to 2800 nM.

In the case of `O=C(O)[C@@H]1Cc2cc(Cl)ccc2O[C@@H]1C(F)(F)F` [Example 9, (2S,3R)-6-chloro-3,4-dihydro-2-(trifluoromethyl)-2H-1-benzopyran-3-carboxylic acid], the melting point was 118.1 to 119.2 °C. In addition, the IC50 on COX-1 [1] was greater than 100000 nM. Further, the half-inhibitory concentration (IC50) at COX-2 [2] amounted to 29000 nM. For the same molecule, at COX-2 [3], the 50% inhibitory concentration (IC50) was determined as 500 nM. Moreover, on COX-1 [4], the concentration for half-maximal inhibition (IC50) was greater than 100000 nM.
